According to publication PMC7179167 (Molecules, 2020):
Converted amounts (≈) assume the structure as drawn. Read-outs that look alike come from different tables or passages of the source.

Experiments:
[1] = system: normal skin fibroblast cells (BJ-1); assay: MTT cytotoxicity assay, normal skin fibroblast BJ-1; format: cell-based; settings: Homo sapiens, 48 h, read-out: Growth Inhibition (%) BJ-1
Procedure: (§1) MCF-7 (human breast cancer), HCT-116 (human colon cancer) and HepG2 (human liver cancer) cell lines were obtained from Karolinska Institute, Stockholm, Sweden. All cells were maintained in RPMI 1640 medium. The media were supplemented with 10% heat-inactivated fetal bovine serum plus 1% antibiotic-antimycoticmixture (10,000 U/mL of potassium penicillin, 10,000 μg/mL of streptomycin sulfate, 25 μg/mL of amphotericin B and 1% of L glutamine (Biowest, USA)). BJ-1 of a human skin fibroblast derived from normal foreskin was obtained from ATCC® CRL-2522™ as a frozen ampoule with about 1 × 10^6 cells per 1 ml volume. BJ-1 was maintained in MEM with 2 mM of L-glutamine and Earle’s salts medium.
(§2) Cell viability was studied using the MTT 3-(4,5-dimethylthiazol-2-yl)-2,5-diphenyl-tetrazolium bromide (Bio Basic Canada Inc. Toronto, Canada) assay [33]. The steps were executed in a sterile laminar air flow cabinet biosafety class II level (Baker, SG403INT; Sanford, ME, USA). All incubations were carried out at 37 °C in a 5% CO2 incubator under a humidified atmosphere of 95% (Sheldon, TC2323; Cornelius, OR, USA). Cells were seeded into 96-well microtiter plastic plates at a concentration of (10^4 cells/well) and allowed to adhere for 24 h. The medium was aspirated and then added to the cells with the test compounds 11a–c, 12a–c, 13a–i, 14a–i and 15a,b at a single dose of 100 μg/mL in DMSO. After incubation of the medium for 48 h, 40 μL of MTT salt (2.5 μg/mL) was added to each well and then incubated for an additional 4 h. To stop the reaction and dissolve any formed formazan crystals, 200 μL of 10% sodium dodecyl sulfate (SDS) were added to each well and incubated overnight at 37 °C. The amount of formazan product was measured at 595 nm with a reference wavelength of 690 nm as a background using a microplate reader (Bio-Rad Laboratories, model 3350, California, USA). For the untreated cells (negative control), the medium was added instead of the tested compounds. […] Dimethylsulfoxide (DMSO) was the vehicle used for dissolution of the testing compound, and its final concentration on the cells was less than 0.2%. At the same dilution, the solvent concentration was the same for all drugs and between the control and drug treatments.

[2] = system: HepG-2 (human liver cancer); assay: MTT cytotoxicity assay, HepG-2; format: cell-based; settings: for inhibition at 100 µg/mL: HepG2, 100 µg/ml, 48 h, read-out: Growth Inhibition (%) HepG-2; for IC50: HepG2, 48 h post-treatment
Procedure: as §1, §2

[3] = DPPH free radical scavenging assay; format: biochemical; settings: concentration of 20µg/l, mean ± SD of three experiments
Procedure: Antioxidant activity of the newly synthesized 13a–i, 14a–i, 11a–c and 12a–c were assessed in terms of hydrogen-donating or radical-scavenging ability via the stable free radical 1,1-diphenyl-2-picrylhydrazyl (DPPH) using ascorbic acid as a reference at a concentration of […].
The free radical scavenging activity (RSA) was assessed spectrophotometically at 517 nm via decoloration of the solution of the DPPH (1,1-diphenyl-2-picrylhydrazyl) radical according to Brand-Williams et al. 1995 [32]. DPPH solution was prepared by dissolving of 20 mg of DPPH in one liter of dimethylsulphoxide (DMSO). A freshly prepared DPPH solution was used for the assay. Each of the tested compounds 11a–c, 12a–c, 13a–i, 14a–i and 15a,b were dissolved in DMSO (1mg/mL). A volume of […] of a DMSO stock solution of the test compounds was added to 2 mL of freshly prepared DPPH in DMSO solution. The mixtures were shaken in a vortex (2500 rpm) for 1 min and then left to stand for 15, 30, 45 and 60 min in the dark room. The absorbance was measured at 517 nm against blank using UV visible spectrophotometer 2401 PC (Shimadzu, Kyoto, Japan). Lower absorbance of the reaction mixture indicated higher free radical scavenging activity was analyzed from the graph plots of the inhibition percentage against the compound concentration. The experiment was carried out in triplicate and averaged. The scavenging activity was calculated according to the following formula:Scavenging ability (%) = (A517 of control - A517of sample / A 517 of control) ×100(1)

[4] = system: MCF-7 (human breast cancer); assay: MTT cytotoxicity assay, MCF-7; format: cell-based; settings: for inhibition at 100 µg/mL: MCF7, 100 µg/ml, 48 h, read-out: Growth Inhibition (%) MCF-7; for IC50: MCF7, 48 h post-treatment
[5] = system: HCT-116 (human colon cancer); assay: MTT cytotoxicity assay, HCT-116; format: cell-based; settings: for inhibition at 100 µg/mL / IC50: Homo sapiens; for inhibition at 100 µg/mL: HCT-116, 100 µg/ml, 48 h, read-out: Growth Inhibition (%) HCT-116; for IC50: HCT-116, 48 h
Procedure: as §1, §2

[6] = 15 min, read-out: Scavenging Activity (%) on DPPH radicals at 15 min
[7] = 30 min, read-out: Scavenging Activity (%) on DPPH radicals at 30 min
[8] = 45 min, read-out: Scavenging Activity (%) on DPPH radicals at 45 min
[9] = 60 min, read-out: Scavenging Activity (%) on DPPH radicals at 60 min

SMILES | melting point | inhibition at 100 µg/mL [1] | inhibition at 100 µg/mL [2] | IC50 [2] | inhibition [3, 6] | inhibition [3, 7] | inhibition [3, 8] | inhibition [3, 9] | inhibition at 100 µg/mL [4] | IC50 [4] | inhibition at 100 µg/mL [5] | IC50 ([5]; 48 h post-treatment) | IC50 HCT-116 ([5]; 48 h post-treatment)
O=C1Nc2ccccc2C12CC(c1cn(S(=O)(=O)c3ccc(Cl)cc3)c3ccccc13)=NN2 (centres unmarked) [Compound 13h, 5’-(N-(4-Chloro-benzensulfonyl)-1H-indol-3-yl)-2’,4’-dihydrospiro(indoline-3,3’-pyrazol)-2-one] | 197 to 199 °C | 14.1% | 79.5% | 19.2 µg/mL (≈ 40.3 µM) | 15.2 ± 1.98% | 16.3 ± 1.96% | 20.6 ± 1.48% | 35.7 ± 1.91% | 93.4% | 5.8 µg/mL (≈ 12.2 µM) | 91.3% | 20.5 µg/mL (≈ 43 µM) | –
COc1cccc2c1C(=O)c1c(O)c3c(c(O)c1C2=O)C[C@@](O)(C(=O)CO)C[C@@H]3O[C@H]1C[C@H](N)[C@H](O)[C@H](C)O1 [Doxorubicin, doxorubicin, reference compound] | – | 0% | 100% | 21.6 µg/mL (≈ 39.7 µM) | – | – | – | – | 96.8% | 37.6 µg/mL (≈ 69.2 µM) | 100% | 21.6 µg/mL (≈ 39.7 µM) | 26.1 µg/mL (≈ 48 µM)
O=C1Nc2ccccc2C12CC(c1cn(S(=O)(=O)c3ccc(Cl)cc3)c3ccccc13)=NN2c1ccccc1 (centres unmarked) [Compound 14h, 5’-(N-(4-Chloro-benzenesulfonyl)-1H-indol-3-yl)-2’-phenyl-2’,4’-dihydrospiro(indoline-3,3’-pyrazol)-2-one] | 110 to 112 °C | 86.5% | – | – | 57.9 ± 1.36% | 67.3 ± 1.35% | 72 ± 1.82% | 86 ± 2.17% | 94% | – | 96.2% | – | –
O=C1Nc2ccccc2C12CC(c1cn(Cc3ccccc3)c3ccccc13)=NN2c1ccccc1 (centres unmarked) [Compound 14c, 5’-(N-Benzyl-1H-indol-3-yl)-2’-phenyl-2’,4’-dihydrospiro(indoline-3,3’-pyrazol)-2-one] | 96 to 98 °C | 13.6% | – | – | 14.8 ± 1.36% | 22.6 ± 1.79% | 26.3 ± 1.23% | 39.5 ± 1.61% | 92.3% | 32.5 µg/mL (≈ 69.4 µM) | 91.8% | 40.5 µg/mL (≈ 86.4 µM) | –
O=C1Nc2ccccc2C12CC(c1cn(S(=O)(=O)c3ccccc3[N+](=O)[O-])c3ccccc13)=NN2 (centres unmarked) [Compound 13i, 5’-(N-(2-Nitro-benzensulfonyl)-1H-indol-3-yl)-2’,4’-dihydrospiro (indoline-3,3’-pyrazol)-2-one] | 210 to 212 °C | 69.4% | 96.8% | – | – | – | – | – | 97.8% | – | 97.7% | – | –
O=C1Nc2ccccc2C12CC(c1cn(S(=O)(=O)c3ccccc3[N+](=O)[O-])c3ccccc13)=NN2c1ccccc1 (centres unmarked) [Compound 14i, 5’-(N-(2-Nitro-benzenesulfonyl)-1H-indol-3-yl)-2’-phenyl-2’,4’-dihydrospiro(indoline-3,3’-pyrazol)-2-one] | 152 to 154 °C | 78.6% | – | – | – | – | – | – | 52.3% | – | 35.1% | – | –
O=C(c1ccccc1Cl)n1cc(C2=NN(c3ccccc3)C3(C2)C(=O)Nc2ccccc23)c2ccccc21 (centres unmarked) [Compound 14e, 5’-(N-(2-Chlorobenzoyl)-1H-indol-3-yl)-2’-phenyl-2’,4’-dihydrospiro(indoline-3,3’-pyrazol)-2-one] | 78 to 80 °C | 16.6% | – | – | 17.9 ± 1.23% | 28.2 ± 1.27% | 30.9 ± 1.98% | 34.9 ± 1.72% | 85.3% | 54 µg/mL (≈ 104 µM) | 35.1% | – | –
O=C(c1ccccc1)n1cc(C2=NN(c3ccccc3)C3(C2)C(=O)Nc2ccccc23)c2ccccc21 (centres unmarked) [Compound 14d, 5’-(N-Benzoyl-1H-indol-3-yl)-2’-phenyl-2’,4’-dihydrospiro(indoline-3,3’-pyrazol)-2-one] | 100 to 102 °C | 9.5% | – | – | 39.9 ± 1.75% | 41.8 ± 1.49% | 45 ± 1.37% | 55.4 ± 1.33% | 94% | 31.6 µg/mL (≈ 65.5 µM) | 96.2% | 30.7 µg/mL (≈ 63.6 µM) | –
O=C1O[C@H]([C@@H](O)CO)C(O)=C1O [Ascorbic acid, ascorbic acid, reference compound] | – | – | – | – | 94.4 ± 1.74% | 97.5 ± 1.32% | 98.78 ± 0.94% | 99.67 ± 0.28% | – | – | – | – | –
CCn1cc(C2=NN(c3ccccc3)C3(C2)C(=O)Nc2ccccc23)c2ccccc21 (centres unmarked) [Compound 14b, 5’-(N-Ethyl-1H-indol-3-yl)-2’-phenyl-2’,4’-dihydrospiro(indoline-3,3’-pyrazol)-2-one] | 108 to 110 °C | 8.1% | – | – | 42.4 ± 1.45% | 58.1 ± 1.28% | 60.3 ± 1.66% | 66 ± 1.64% | 80.3% | 36.3 µg/mL (≈ 89.3 µM) | 84.6% | 40.1 µg/mL (≈ 98.6 µM) | –
O=C(c1ccc(Cl)cc1)n1cc(C2=NN(c3ccccc3)C3(C2)C(=O)Nc2ccccc23)c2ccccc21 (centres unmarked) [Compound 14f, 5’-(N-(4-Chlorobenzoyl)-1H-indol-3-yl)-2’-phenyl-2’,4’-dihydrospiro(indoline-3,3’-pyrazol)-2-one] | 162 to 164 °C | 14.5% | – | – | 9.05 ± 1.63% | 10.2 ± 1.83% | 16.2 ± 1.21% | 22.9 ± 1.62% | 89.3% | 31.2 µg/mL (≈ 60.3 µM) | 91.4% | 35.8 µg/mL (≈ 69.2 µM) | –
O=C1Nc2ccccc2C12CC(c1cn(S(=O)(=O)c3ccc(Br)cc3)c3ccccc13)=NN2c1ccccc1 (centres unmarked) [Compound 14g, 5’-(N-(4-Bromo-benzenesulfonyl)-1H-indol-3-yl)-2’-phenyl-2’,4’-dihydrospiro(indoline-3,3’-pyrazol)-2-one] | 132 to 134 °C | 16% | – | – | 8.39 ± 1.14% | 11.9 ± 1.23% | 14.1 ± 2.01% | 26.6 ± 2.13% | 90.6% | 37.4 µg/mL (≈ 62.6 µM) | 92.1% | 38 µg/mL (≈ 63.6 µM) | –
O=C1Nc2ccccc2C12CC(c1c[nH]c3ccccc13)=NN2c1ccccc1 (centres unmarked) [Compound 14a, 5’-(1H-Indol-3-yl)-2’-phenyl-2’,4’-dihydrospiro(indoline-3,3’-pyrazol)-2-one] | 124 to 126 °C | 14.2% | – | – | 41.1 ± 2.05% | 51.5 ± 1.91% | 54 ± 2.06% | 59.2 ± 2.14% | 90.4% | 32.3 µg/mL (≈ 85.4 µM) | 91.2% | 36.2 µg/mL (≈ 95.7 µM) | –
